Measured values as given in patent US8895695B2, “Template-fixed beta-hairpin peptidomimetics with CXCR4 antagonizing activity” (priority 2003, dated 2014).
Bridge positions count the residues as written; N and C are the ends. Square brackets hold non-standard residues; d marks the D form. Peptide text beside a SMILES is read from it. 2Nal = N[C@@H](Cc1ccc2ccccc2c1)C(=O)O; Cit = NC(=O)NCCC[C@H](N)C(=O)O; Orn = NCCC[C@H](N)C(=O)O; Dab = NCC[C@H](N)C(=O)O

Legend:
in vitro = settings: human
CXCR4 = CXCR4 (Homo sapiens, UniProt P61073); experiment: Ca2+-assay method 2 (Flexstation, SDF-1 induced calcium mobilization); type: cell-based; set-up: expressed in transfected cells; host or cells: mouse pre-B cell line 300-19; settings: method 2 (Ex. 54-160), mouse pre-B cell line 300-19 with human CXCR4, 10 nM SDF-1; read-out: IC50 (nM) Ca^2+ assay
Chain of CXCR4 (P61073 whole entry): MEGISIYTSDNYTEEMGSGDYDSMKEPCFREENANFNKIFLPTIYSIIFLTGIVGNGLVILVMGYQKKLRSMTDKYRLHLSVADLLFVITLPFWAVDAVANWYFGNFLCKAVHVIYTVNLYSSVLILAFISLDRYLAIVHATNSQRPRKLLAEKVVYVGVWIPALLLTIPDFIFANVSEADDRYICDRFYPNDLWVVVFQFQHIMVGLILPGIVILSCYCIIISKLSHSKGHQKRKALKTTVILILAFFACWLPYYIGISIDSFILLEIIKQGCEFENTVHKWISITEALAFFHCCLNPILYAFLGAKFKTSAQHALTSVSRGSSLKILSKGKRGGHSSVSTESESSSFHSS

[1] = tested on: human red blood cells (hRBC); experiment: Hemolysis; type: cell-based
Summary of the method: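 Washed fresh human erythrocytes (20% v/v, about 0.9×10^9 cells/ml final) incubated with peptide at 100 μM for 1 h at 37° C. Supernatant diluted 20-fold and OD540 read. Percent hemolysis relative to 0.1% Triton X-100 in H2O (100%), with PBS alone as 0%.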
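Throughout, for GI50: MTT reduction read as absorbance at 595 nm, blank-corrected and expressed as percent growth relative to the time-zero cell reading, triplicate wells per concentration.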

| SMILES | GI50 at 48 h (in vitro) [µM] | IC50 (CXCR4) [nM] | Hemolysis at 100 μM [1] [%] |
| --- | --- | --- | --- |
| N=C(N)NCCC[C@@H]1NC(=O)[C@@H]2CSSC[C@H](NC(=O)[C@H](Cc3ccc4ccccc4c3)NC(=O)[C@H](CCCNC(=N)N)NC(=O)[C@H](CCN)NC(=O)[C@H]3CCCN3C(=O)CNC1=O)C(=O)N[C@@H](Cc1ccc(O)cc1)C(=O)N[C@@H](CCCNC(N)=O)C(=O)N[C@@H](CCCCN)C(=O)N1CCC[C@@H]1C(=O)N1CCC[C@H]1C(=O)N[C@@H](Cc1ccc(O)cc1)C(=O)N[C@@H](CCCNC(=N)N)C(=O)N[C@@H](CCCNC(N)=O)C(=O)N2 [Ex. 134] (cyclo(YR[Cit]CRG[dP][Dab]R[2Nal]CY[Cit]K[dP]P); disulfide 4-11) | 21 | 1.7 | 0 |
| CC[C@H](C)[C@@H]1NC(=O)[C@H](CCCNC(=N)N)NC(=O)[C@H](Cc2ccc(O)cc2)NC(=O)[C@@H]2CCCN2C(=O)[C@H]2CCCN2C(=O)[C@H](CCCCN)NC(=O)[C@H](CCC(N)=O)NC(=O)[C@H](Cc2ccc(O)cc2)NC(=O)[C@@H]2CSSC[C@H](NC1=O)C(=O)N[C@@H](CCCNC(=N)N)C(=O)NCC(=O)N1CCC[C@@H]1C(=O)N[C@@H](CCCNC(=N)N)C(=O)N[C@@H](CCCNC(=N)N)C(=O)N[C@@H](Cc1ccc3ccccc3c1)C(=O)N2 [Ex. 71] (cyclo(YRICRG[dP]RR[2Nal]CYQK[dP]P); disulfide 4-11) | 34 | 2.7 | 0.1 |
| CC(C)[C@@H]1NC(=O)[C@@H]2CCCN2C(=O)[C@H]2CCCN2C(=O)[C@H](CCCCN)NC(=O)[C@H](CCC(N)=O)NC(=O)[C@H](Cc2ccc(O)cc2)NC(=O)[C@@H]2CSSC[C@H](NC(=O)[C@H](CCCNC(N)=O)NC(=O)[C@H](CCCNC(=N)N)NC1=O)C(=O)N[C@@H](CCCNC(=N)N)C(=O)NCC(=O)N1CCC[C@@H]1C(=O)N[C@@H](CCCNC(=N)N)C(=O)N[C@@H](CCCNC(=N)N)C(=O)N[C@@H](Cc1ccc3ccccc3c1)C(=O)N2 [Ex. 90] (cyclo(VR[Cit]CRG[dP]RR[2Nal]CYQK[dP]P); disulfide 4-11) | 57 | 19.5 | 0.1 |
| N=C(N)NCCC[C@@H]1NC(=O)[C@@H]2CSSC[C@H](NC(=O)[C@H](Cc3ccc4ccccc4c3)NC(=O)[C@H](CCCNC(=N)N)NC(=O)[C@H](CCCNC(=N)N)NC(=O)[C@H]3CCCN3C(=O)CNC1=O)C(=O)N[C@@H](Cc1ccc(O)cc1)C(=O)N[C@@H](CCCNC(N)=O)C(=O)N[C@@H](CCCCN)C(=O)N1CCC[C@@H]1C(=O)N1CCC[C@H]1C(=O)N[C@@H](Cc1ccc(O)cc1)C(=O)N[C@@H](CCCNC(=N)N)C(=O)N[C@@H](CCC(N)=O)C(=O)N2 [Ex. 130] (cyclo(YRQCRG[dP]RR[2Nal]CY[Cit]K[dP]P); disulfide 4-11) | 62 | 4.1 | 0 |
| CC(C)C[C@@H]1NC(=O)[C@H](CCCNC(=N)N)NC(=O)[C@H](Cc2ccc(O)cc2)NC(=O)[C@@H]2CCCN2C(=O)[C@H]2CCCN2C(=O)[C@H](CCCCN)NC(=O)[C@H](CCC(N)=O)NC(=O)[C@H](Cc2ccc(O)cc2)NC(=O)[C@@H]2CSSC[C@H](NC1=O)C(=O)N[C@@H](CCCNC(=N)N)C(=O)NCC(=O)N1CCC[C@@H]1C(=O)N[C@@H](CCCNC(=N)N)C(=O)N[C@@H](CCCNC(=N)N)C(=O)N[C@@H](Cc1ccc3ccccc3c1)C(=O)N2 [Ex. 97] (cyclo(YRLCRG[dP]RR[2Nal]CYQK[dP]P); disulfide 4-11) | 44 | 4.3 | 0.8 |
| N=C(N)NCCC[C@@H]1NC(=O)[C@@H]2CSSC[C@H](NC(=O)[C@H](Cc3ccc4ccccc4c3)NC(=O)[C@H](CCCNC(=N)N)NC(=O)[C@H](CCCNC(=N)N)NC(=O)[C@H]3CCCN3C(=O)CNC1=O)C(=O)N[C@@H](Cc1ccc(O)cc1)C(=O)N[C@@H](CCCNC(=N)N)C(=O)N[C@@H](CCCCN)C(=O)N1CCC[C@@H]1C(=O)N1CCC[C@H]1C(=O)N[C@@H](Cc1ccc(O)cc1)C(=O)N[C@@H](CCCNC(=N)N)C(=O)N[C@@H](CCCNC(N)=O)C(=O)N2 [compound 57] (cyclo(YR[Cit]CRG[dP]RR[2Nal]CYRK[dP]P); disulfide 4-11) | 33 | 4.2 | 0.1 |
| N=C(N)NCCC[C@@H]1NC(=O)[C@@H]2CSSC[C@H](NC(=O)[C@H](Cc3ccc4ccccc4c3)NC(=O)[C@H](CCCNC(=N)N)NC(=O)[C@H](CCCNC(=N)N)NC(=O)[C@H]3CCCN3C(=O)CNC1=O)C(=O)N[C@@H](Cc1ccc(O)cc1)C(=O)N[C@@H](CCC(N)=O)C(=O)N[C@@H](CCCCN)C(=O)N1CCC[C@@H]1C(=O)N1CCC[C@H]1C(=O)N[C@@H](CCC(N)=O)C(=O)N[C@@H](CCCNC(=N)N)C(=O)N[C@@H](CCCNC(N)=O)C(=O)N2 [Ex. 62] (cyclo(QR[Cit]CRG[dP]RR[2Nal]CYQK[dP]P); disulfide 4-11) | 65 | 1.8 | 0.1 |
| N=C(N)NCCC[C@@H]1NC(=O)[C@@H]2CSSC[C@H](NC(=O)[C@H](Cc3ccc4ccccc4c3)NC(=O)[C@H](CCCNC(=N)N)NC(=O)[C@H](CCCNC(=N)N)NC(=O)[C@H]3CCCN3C(=O)CNC1=O)C(=O)N[C@@H](Cc1ccc(O)cc1)C(=O)N[C@@H](CCC(N)=O)C(=O)N[C@@H](CC(N)=O)C(=O)N1CCC[C@@H]1C(=O)N1CCC[C@H]1C(=O)N[C@@H](Cc1ccc(O)cc1)C(=O)N[C@@H](CCCNC(=N)N)C(=O)N[C@@H](CCCNC(N)=O)C(=O)N2 [Ex. 84] (cyclo(YR[Cit]CRG[dP]RR[2Nal]CYQN[dP]P); disulfide 4-11) | 62 | 3.9 | 0 |
| N=C(N)NCCC[C@@H]1NC(=O)[C@@H]2CSSC[C@H](NC(=O)[C@H](Cc3ccc4ccccc4c3)NC(=O)[C@H](CCCNC(=N)N)NC(=O)[C@H](CCCNC(=N)N)NC(=O)[C@H]3CCCN3C(=O)CNC1=O)C(=O)N[C@@H](Cc1ccc(O)cc1)C(=O)N[C@@H](CCC(N)=O)C(=O)N[C@@H](CCCCN)C(=O)N1CCC[C@@H]1C(=O)N1CCC[C@H]1C(=O)N[C@@H](Cc1ccc(O)cc1)C(=O)N[C@@H](CCCNC(=N)N)C(=O)N[C@@H](CCCCN)C(=O)N2 [Ex. 94] (cyclo(YRKCRG[dP]RR[2Nal]CYQK[dP]P); disulfide 4-11) | 45 | 2.5 | 0.2 |
| N=C(N)NCCC[C@@H]1NC(=O)[C@@H]2CSSC[C@H](NC(=O)[C@H](Cc3c[nH]c4ccccc34)NC(=O)[C@H](CCCN)NC(=O)[C@H](CCCNC(=N)N)NC(=O)[C@H]3CCCN3C(=O)CNC1=O)C(=O)N[C@@H](Cc1ccc(O)cc1)C(=O)N[C@@H](CCCNC(N)=O)C(=O)N[C@@H](CCCCN)C(=O)N1CCC[C@@H]1C(=O)N1CCC[C@H]1C(=O)N[C@@H](Cc1ccc(O)cc1)C(=O)N[C@@H](CCCNC(=N)N)C(=O)N[C@@H](CCCNC(N)=O)C(=O)N2 [Ex. 117] (cyclo(YR[Cit]CRG[dP]R[Orn]WCY[Cit]K[dP]P); disulfide 4-11) | 44 | 3.4 | 0 |
| N=C(N)NCCC[C@@H]1NC(=O)[C@@H]2CSSC[C@H](NC(=O)[C@H](Cc3ccc4ccccc4c3)NC(=O)[C@H](CCCNC(=N)N)NC(=O)[C@H](CCCNC(=N)N)NC(=O)[C@H]3CCCN3C(=O)CNC1=O)C(=O)N[C@@H](Cc1ccc(O)cc1)C(=O)N[C@@H](CCC(N)=O)C(=O)N[C@@H](CO)C(=O)N1CCC[C@@H]1C(=O)N1CCC[C@H]1C(=O)N[C@@H](Cc1ccc(O)cc1)C(=O)N[C@@H](CCCNC(=N)N)C(=O)N[C@@H](CCCNC(N)=O)C(=O)N2 [Ex. 87] (cyclo(YR[Cit]CRG[dP]RR[2Nal]CYQS[dP]P); disulfide 4-11) | 64 | 3.5 | 0 |
